Experimental data taken from publication PMC8151276, “An Integrated Approach toward NanoBRET Tracers for Analysis of GPCR Ligand Engagement” (Molecules, 2021).

Columns and labels:
Format in all cases: binding
CYSLTR1 = target: T1, CYSLTR1 (Homo sapiens, UniProt Q9Y271); assay: NanoBRET screen HiBiT-CYSLTR1 in HEK293
T1 construct: purchased Promega (in-house HiBiT-GPCR construct library, NanoBRET)
T1 sequence (Q9Y271 1-337): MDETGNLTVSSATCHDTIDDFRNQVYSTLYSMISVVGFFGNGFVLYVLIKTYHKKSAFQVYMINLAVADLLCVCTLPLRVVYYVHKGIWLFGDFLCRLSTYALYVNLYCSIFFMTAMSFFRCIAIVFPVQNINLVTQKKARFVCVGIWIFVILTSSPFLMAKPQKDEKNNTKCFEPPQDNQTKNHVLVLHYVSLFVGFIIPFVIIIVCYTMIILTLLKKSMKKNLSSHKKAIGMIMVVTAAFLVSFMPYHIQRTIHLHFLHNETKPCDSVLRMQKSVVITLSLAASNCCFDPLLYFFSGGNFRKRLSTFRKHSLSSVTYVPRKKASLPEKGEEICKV
Experimental: (§1) Each tracer candidate was screened across the entire library of HiBiT-GPCR constructs using NanoBRET as the detection modality. As depicted in Figure 4A, the specificity of interactions was evaluated through decrease in BRET due to competitive displacement of a bound tracer by excess parental compound. Each tracer was analyzed for binding to each HiBiT-GPCR fusion in the absence and in the presence of competing parental compound. Briefly, HEK293 cells were transfected with HiBiT-GPCR constructs diluted into promoterless DNA to reduce expression and maximize translocation to the cell surface. Each tracer candidate was then screened at concentrations of 1 μM and 0.1 μM across cells expressing these fusions. Cells were treated for 1.5 h with tracer either alone or in the presence of 20 μM competing parental compound (i.e., control). BRET was measured upon addition of purified LgBiT and subsequent complementation with HiBiT genetically fused to a GPCR. The specificity of interactions was assessed through a decrease in BRET signal due to competitive displacement of the bound tracer. To further gauge the robustness of these interactions, the fold response over the control (i.e., BRETtracer/BRETcontrol) was calculated. We chose a 1.5-fold response, which translates to ≥7-fold signal over noise as the minimal threshold required to score an interaction as positive.
(§2) HiBiT-GPCR DNA constructs were diluted in 10 mM Tris pH 8 to a final concentration of 0.01 μg/μL, arrayed in 96-well plates and stored at −20 °C. For transfection, HEK293 cells were suspended in Opti-MEM (without phenol red) supplemented with 2% fetal bovine serum (Seradigm) and 100 units/mL penicillin–streptomycin (Gibco) at a final concentration of 220,000 cells/mL and dispensed into white 96-well plates at 90 μL/well. Subsequent transfections and screens were carried using an Agilent Bravo Automated Liquid Handling Platform. First, the 96-well HiBiT DNA arrays were diluted 25-fold in Opti-MEM (without serum or phenol red) to a final concentration of 0.0004 μg/μL and 20 μL of the diluted DNAs were transferred into new 96-well plates. Next, promoterless carrier DNA (1 μg/μL) was diluted 25-fold (0.04 μg/μL) and then dispensed into the diluted arrays at 20 μL/well. Following brief mixing, Viafect transfection reagent (Promega) diluted 16-fold into Opti-MEM was dispensed into the plates at 40 μL/well. After mixing by pipetting, plates were incubated for 10 min on the pipetting station deck. The DNA-transfection reagent complexes were then added to plates containing cells. To facilitate the screen, 10 μL of DNA-transfection reagent complexes were added in duplicates to the top 4 and bottom 4 rows, resulting in two identical 48-well arrays per plate. Plates with transfected cells were incubated for 18–20 h at 37 °C/5% CO2. A screen of each tracer across the entire library using two different concentrations requires duplicate plates of transfected cells. Depending on the number of tracers being screened, transfections can be scaled up using the same ratios. The next day, for each tracer, four 20× screening solutions in tracer dilution buffer (Promega) were prepared: two duplicates at final concentration of 20 μM and two duplicates at a final concentration of 2 μM. […] The four resulting solutions were diluted 4-fold in Opti-MEM without serum or phenol red to generate 5× solutions (5 µM and 0.5 µM tracer +/− 100 μM competing compound). To screen the library, a BioTek MultiFlo FX liquid dispenser was used to dispense 22.5 µL of tracer solution to the top 4 rows and 22.5 µL tracer + competing compound solution to the 4 bottom rows. Plates were briefly mixed on an orbital shaker and incubated for 1.5 h at room temperature. […] Plates were briefly mixed on an orbital shaker and incubated for 15 min to allow complementation.

NPSR1 = target: T2, NPSR1 (Homo sapiens, UniProt Q6W5P4); assay: NanoBRET screen HiBiT-NPSR1 in HEK293
T2 construct: purchased Promega (in-house HiBiT-GPCR construct library, NanoBRET)
T2 sequence (Q6W5P4 1-371): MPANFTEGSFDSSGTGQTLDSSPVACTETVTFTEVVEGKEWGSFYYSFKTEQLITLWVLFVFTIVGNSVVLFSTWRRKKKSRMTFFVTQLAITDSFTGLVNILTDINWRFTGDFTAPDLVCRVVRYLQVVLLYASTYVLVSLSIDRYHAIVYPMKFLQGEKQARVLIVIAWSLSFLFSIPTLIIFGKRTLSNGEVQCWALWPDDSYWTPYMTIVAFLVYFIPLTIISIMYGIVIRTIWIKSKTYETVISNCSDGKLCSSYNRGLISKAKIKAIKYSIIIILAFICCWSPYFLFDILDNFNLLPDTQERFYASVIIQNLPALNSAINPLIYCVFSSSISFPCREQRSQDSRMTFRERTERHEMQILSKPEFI
Experimental: as §1, §2

NPFFR1 = target: T3, NPFFR1 (Homo sapiens, UniProt Q9GZQ6); assay: NanoBRET screen HiBiT-NPFFR1 in HEK293
T3 construct: purchased Promega (in-house HiBiT-GPCR construct library, NanoBRET)
T3 sequence (Q9GZQ6 whole entry): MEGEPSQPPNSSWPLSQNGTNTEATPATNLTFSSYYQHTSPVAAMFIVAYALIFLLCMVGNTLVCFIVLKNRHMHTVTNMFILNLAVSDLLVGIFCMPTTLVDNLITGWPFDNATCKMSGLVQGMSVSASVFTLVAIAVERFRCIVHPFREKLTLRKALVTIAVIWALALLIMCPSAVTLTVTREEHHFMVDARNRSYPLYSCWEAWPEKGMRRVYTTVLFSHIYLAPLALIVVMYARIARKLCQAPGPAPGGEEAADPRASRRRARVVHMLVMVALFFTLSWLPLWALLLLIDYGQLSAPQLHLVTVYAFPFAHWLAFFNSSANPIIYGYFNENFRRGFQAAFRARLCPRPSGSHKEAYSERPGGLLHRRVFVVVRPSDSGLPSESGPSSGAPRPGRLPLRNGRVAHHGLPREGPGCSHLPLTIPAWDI
Experimental: as §1, §2

SMILES | NanoBRET Fold Response (CYSLTR1; CYSLTR1, tracer 0.1μM) | NanoBRET Fold Response (CYSLTR1; CYSLTR1, tracer 1μM) | NanoBRET Fold Response (NPSR1; NPSR1, tracer 0.1μM) | NanoBRET Fold Response (NPSR1; NPSR1, tracer 1μM) | NanoBRET Fold Response (NPFFR1; NPFFR1, tracer 0.1μM) | NanoBRET Fold Response (NPFFR1; NPFFR1, tracer 1μM) | NanoBRET Fold Response (CYSLTR1; 0.1μM tracer) | NanoBRET Fold Response (CYSLTR1; 1μM tracer) | NanoBRET Fold Response (NPSR1; 0.1μM tracer) | NanoBRET Fold Response (NPSR1; 1μM tracer) | NanoBRET Fold Response (NPFFR1; 0.1μM tracer) | NanoBRET Fold Response (NPFFR1; 1μM tracer)
O=C(CCc1ccc2n1[B-](F)(F)[N+]1=C(c3ccc[nH]3)C=CC1=C2)NCc1ccc(C(=O)NCCOCCC(=O)N[C@@H]2CC[C@@]3(O)[C@H]4Cc5ccc(O)c6c5[C@@]3(CCN4CC3CC3)[C@H]2O6)cc1 [Naltrexone-3-NB590] | 0.74 | 1.09 | 1.12 | 0.92 | 0.94 | 1.15 |  |  |  |  |  | 
COc1ccccc1N1CCN(CCCCN2C(=O)c3ccc(CNC(=O)CCOCCNC(=O)c4ccc(CNC(=O)CCc5ccc6n5[B-](F)(F)[N+]5=C(c7ccc[nH]7)C=CC5=C6)cc4)cc3C2=O)CC1 [NAN-190-3-NB590] | 1.15 | 1.30 | 1.10 | 1.17 | 1.06 | 0.96 |  |  |  |  |  | 
Cc1cc2c(s1)Nc1ccccc1N=C2N1CCN(CCCNC(=O)CCOCCOCCOCCOCCNC(=O)CCc2ccc3n2[B-](F)(F)[N+]2=C(c4ccc[nH]4)C=CC2=C3)CC1 [Olanzapine-a-2-NB590] | 1.00 | 1.06 | 1.01 | 1.17 | 0.96 |  |  |  |  |  |  | 
CCCn1c(=O)c2[nH]c(-c3ccc(OCC(=O)NCCNC(=O)CCOCCNC(=O)c4ccc(CNC(=O)CCc5ccc6n5[B-](F)(F)[N+]5=C(c7ccc[nH]7)C=CC5=C6)cc4)cc3)nc2n(CCC)c1=O [XAC-3-NB590] |  | 1.08 | 0.90 | 0.92 | 0.99 | 1.01 |  |  |  |  |  | 
COc1ccc2c(n1)c(CCNC(C)=O)cn2CCNC(=O)CCc1ccc2n1[B-](F)(F)[N+]1=C(c3ccc[nH]3)C=CC1=C2 [Azamelatonin-1-NB590] |  |  |  |  |  |  | 0.81 | 1.23 | 0.96 | 0.84 | 0.99 | 0.91
